Reference: patent US20250051338A1, “TYK2 DEGRADERS AND USES THEREOF” (Kymera Therapeutics, Inc., priority 2021, published 2025)

Legend:
Type in all cases: cell-based
TYK2 [1] = biological target: T1, TYK2 (Homo sapiens, UniProt P29597); experiment: TYK2 degradation MSD assay in human PBMC cells; design: endogenous in cells; host or cells: human PBMC; conditions: 4 to 24 hours incubation, read-out: TYK2 MSD DC50 rating in human PBMC
Procedure, shortened: (§1)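 Cells (0.4 million per well) were treated with a 9-point, 1:3 compound series from a top concentration of 1 to 10 μM for 4 to 24 hours at 37° C, then lysed in RIPA with protease/phosphatase inhibitors. Remaining TYK2 was quantified by sandwich MSD immunoassay; DC50 came from four-parameter nonlinear fits.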

TYK2 [2] = biological target: T1, TYK2; experiment: TYK2 degradation MSD assay in OCI-LY10 cells; design: endogenous in cells; host or cells: EBV-B cells; conditions: 4 to 24 hours incubation, read-out: TYK2 MSD DC50 rating in OCI-LY10
Procedure, shortened: as §1

TYK2 [3] = biological target: T1, TYK2; experiment: TYK2 degradation MSD assay in EBV-B cells; design: endogenous in cells; host or cells: EBV-B cells; conditions: 4 to 24 hours incubation, read-out: TYK2 MSD DC50 rating in EBV-B
Procedure, shortened: as §1

T1 sequence (P29597 whole entry): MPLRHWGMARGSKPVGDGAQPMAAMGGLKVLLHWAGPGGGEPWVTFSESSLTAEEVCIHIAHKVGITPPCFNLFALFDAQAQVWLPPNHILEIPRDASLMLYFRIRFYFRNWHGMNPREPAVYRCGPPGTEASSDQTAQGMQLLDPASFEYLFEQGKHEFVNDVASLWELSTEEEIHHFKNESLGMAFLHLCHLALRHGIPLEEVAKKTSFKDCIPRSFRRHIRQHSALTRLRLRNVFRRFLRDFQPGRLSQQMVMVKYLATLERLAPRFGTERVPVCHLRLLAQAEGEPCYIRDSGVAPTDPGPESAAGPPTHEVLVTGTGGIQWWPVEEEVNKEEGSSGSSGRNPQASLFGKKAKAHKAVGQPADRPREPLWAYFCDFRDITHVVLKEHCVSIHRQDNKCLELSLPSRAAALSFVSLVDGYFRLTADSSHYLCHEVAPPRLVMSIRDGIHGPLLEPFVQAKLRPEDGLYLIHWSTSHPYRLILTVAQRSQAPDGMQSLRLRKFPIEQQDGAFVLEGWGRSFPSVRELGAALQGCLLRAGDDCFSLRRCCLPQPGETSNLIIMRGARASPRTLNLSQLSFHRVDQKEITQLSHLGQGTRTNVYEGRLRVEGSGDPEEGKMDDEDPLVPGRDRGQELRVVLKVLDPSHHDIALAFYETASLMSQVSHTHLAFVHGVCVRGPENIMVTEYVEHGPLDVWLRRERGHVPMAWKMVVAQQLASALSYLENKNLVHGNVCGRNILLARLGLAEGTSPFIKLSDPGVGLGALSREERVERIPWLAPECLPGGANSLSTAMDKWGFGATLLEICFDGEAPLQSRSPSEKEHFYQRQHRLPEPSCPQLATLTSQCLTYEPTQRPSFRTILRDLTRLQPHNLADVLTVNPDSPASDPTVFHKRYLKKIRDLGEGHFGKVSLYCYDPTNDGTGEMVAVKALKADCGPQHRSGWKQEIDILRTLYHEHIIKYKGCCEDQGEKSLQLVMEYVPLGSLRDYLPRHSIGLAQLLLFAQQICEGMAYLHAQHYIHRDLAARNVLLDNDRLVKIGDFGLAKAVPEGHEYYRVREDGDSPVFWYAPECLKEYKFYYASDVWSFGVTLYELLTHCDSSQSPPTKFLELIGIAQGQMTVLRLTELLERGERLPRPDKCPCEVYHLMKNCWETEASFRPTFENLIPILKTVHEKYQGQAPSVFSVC

Structure (SMILES) | DC50 (TYK2 [1]) | DC50 (TYK2 [2]) | DC50 (TYK2 [3])
Cn1c(=O)n(C2CCC(=O)NC2=O)c2cccc(N3CCC4(CC3)CN(Cc3ccc(-c5cccc(Nc6ccc7ncc(C(=O)NC8CC8)n7n6)c5)nc3)C4)c21 (stereo not drawn) [Example K452] | > 100 nM | > 100 nM | > 100 nM
CNc1cc(-c2cn(C)c3c(C4CCN(CC5CCN(c6ccc(-c7ccc8c(c7)n(C)c(=O)n8C7CCC(=O)NC7=O)cc6)CC5)CC4)cccc23)nn2c(C(=O)N[C@@H]3C[C@@H]3F)cnc12 (mixture of isomers) [Example K540] | > 100 nM | 1 to 10 nM | > 100 nM
CNc1cc(-c2cccc(C(=O)NCCCCCCc3ccc4c(c3)n(C)c(=O)n4C3CCC(=O)NC3=O)c2)nn2c(C(=O)N[C@@H]3C[C@@H]3F)cnc12 (stereo partly drawn) [Example K306] | > 100 nM | > 100 nM | > 100 nM
CNc1cc(Nc2cccc(CN3CCC(OC4CC(c5ccc6c(c5)n(C)c(=O)n6C5CCC(=O)NC5=O)C4)CC3)c2)nn2c(C(=O)NC3CC3)cnc12 (stereo not drawn) [Example K596] | > 100 nM | < 1 nM | > 100 nM
Cn1c(=O)n(C2CCC(=O)NC2=O)c2cccc(CCOCCOCCNc3cc(Nc4cccn(-c5ccccn5)c4=O)nn4c(C(=O)N[C@@H]5C[C@@H]5F)cnc34)c21 (stereo partly drawn) [Example K212] | > 100 nM | > 100 nM | > 100 nM
CNc1cc(Nc2cccc(-c3ccc(CN4CCN([C@H]5CC[C@@H](c6ccc7c(c6)n(C)c(=O)n7C6CCC(=O)NC6=O)CC5)CC4)cn3)c2OC)nn2c(C(=O)N[C@@H]3C[C@@H]3F)cnc12 (mixture of isomers) [Example K552] | > 100 nM | < 1 nM | < 1 nM
CNC1=CC(Nc2cccc(-c3ccc(CN4CCN(c5ccc(-c6cccc7c(N8CCC(=O)NC8=O)cncc67)cc5)CC4)cn3)c2)=NN2C1=NCC2C(=O)N[C@@H]1C[C@@H]1F (stereo partly drawn) [Example K516] | > 100 nM | > 100 nM | 1 to 10 nM
CCNC(=O)c1cnc2c(NC)cc(Nc3cccc(-c4ccc(CN5CCN(c6ccc(-c7ccc8c(c7)n(C)c(=O)n8C7CCC(=O)NC7=O)cc6)CC5)cn4)c3OC)nn12 (stereo not drawn) [Example K526] | > 100 nM | 1 to 10 nM | > 100 nM
CNc1cc(Nc2cccc(-c3ccc(CN4CCN(c5ccc(-c6cccc7c6n(C)c(=O)n7C6CCC(=O)NC6=O)cc5)CC4)cn3)c2OC)nn2c(C(=O)N[C@@H]3C[C@@H]3F)cnc12 (stereo partly drawn) [Example K488] | > 100 nM | 1 to 10 nM | > 100 nM
CCc1nn(-c2cccc(F)c2OC)c2cc(Nc3ccc(CN(C)C4CCN(c5cccc6c5n(C)c(=O)n6C5CCC(=O)NC5=O)CC4)cn3)ncc12 (stereo not drawn) [Example K537] | > 100 nM | > 100 nM | > 100 nM
CNc1cc(Nc2cccc(-c3ccc(CN4CC5(CCN(c6ccc(C7CCC(=O)NC7=O)cc6)CC5)C4)cn3)c2)nn2c(C(=O)N[C@@H]3C[C@@H]3F)cnc12 (stereo partly drawn) [Example K500] | > 100 nM | > 100 nM | > 100 nM
CNc1cc(-c2cnn(C3CN(C(=O)NCCCCCCc4cccc5c4n(C)c(=O)n5C4CCC(=O)NC4=O)C3)c2)nn2c(C(=O)N[C@@H]3C[C@@H]3F)cnc12 (stereo partly drawn) [Example K317] | > 100 nM | > 100 nM | > 100 nM
CNc1cc(Nc2cccn(-c3cc(C(=O)NCCOCCOCCOCCOCCc4cccc5c4n(C)c(=O)n5C4CCC(=O)NC4=O)ccn3)c2=O)nn2c(C(=O)N[C@@H]3C[C@@H]3F)cnc12 (stereo partly drawn) [Example K242] | > 100 nM | > 100 nM | > 100 nM
Cn1c(=O)n(C2CCC(=O)NC2=O)c2ccc(N3CCN(C4CN(C5CCN(Cc6ccc(-c7cccc(Nc8ccc9ncc(C(=O)NC%10CC%10)n9n8)c7)nc6)CC5)C4)CC3)cc21 (stereo not drawn) [Example K524] | > 100 nM | > 100 nM | > 100 nM
CNc1cc(Nc2cnn(CC3CCN(CC4CCN(c5ccc6c(c5)n(C)c(=O)n6C5CCC(=O)NC5=O)CC4)CC3)c2)nn2c(C(=O)N[C@@H]3C[C@@H]3F)cnc12 (mixture of isomers) [Example K548] | > 100 nM | > 100 nM | > 100 nM
CNc1cc(Nc2cccn(-c3ccc(C(=O)NCCCCc4ccc5c(c4)n(C)c(=O)n5C4CCC(=O)NC4=O)cn3)c2=O)nn2c(C(=O)N[C@@H]3C[C@@H]3F)cnc12 (stereo partly drawn) [Example K264] | > 100 nM | > 100 nM | > 100 nM
CNc1cc(Nc2cccn(-c3ccc(C(=O)N4CCN(CC5CCN(c6ccc(-c7ccc8c(c7)n(C)c(=O)n8C7CCC(=O)NC7=O)cc6)CC5)CC4)cn3)c2=O)nn2c(C(=O)N[C@@H]3C[C@@H]3F)cnc12 (stereo partly drawn) [Example K374] | > 100 nM | > 100 nM | < 1 nM
